ChEMBL document CHEMBL4004820 (J Med Chem, 2017)

Key:
[1] = tested on: Influenza A virus (A/Udorn/307/1972(H3N2))
[2] = Antiviral activity against Influenza A virus (A/WSN/1933(H1N1)) expressing wild-type M2 proton channel infected in MDCK cells assessed as reduction in cytopathic effect after 48 hrs by crystal violet staining-based microscopic analysis; type: functional, cell-based
MDCK = test: Cytotoxicity against MDCK cells measured after 72 hrs et staining-based microscopic analysis; type: cell-based, Canis lupus familiaris; conditions: dog
[3] = tested on: Influenza A virus (A/California/07/2009(H1N1)); test: Inhibition of full-length Influenza A virus (A/California/07/2009(H1N1)) M2 proton channel expressed in HEK cells assessed as inhibition of low-pH-dependent inward proton currents at 100 uM and pH 5.5 measured after 30 mins in presence of CaCl2 by electrophysiology method relative to control; type: cell-based
[4] = tested on: Influenza A virus (A/California/07/2009(H1N1)); test: Inhibition of full-length Influenza A virus (A/California/07/2009(H1N1)) M2 proton channel expressed in HEK cells assessed as inhibition of low-pH-dependent inward proton currents at 100 uM and pH 5.5 measured after 3 mins in presence of CaCl2 by electrophysiology method relative to control; type: cell-based
[5] = tested on: Influenza A virus (A/Udorn/307/1972(H3N2)); remark: listed apart in the source
[6] = tested on: Influenza A virus (A/Udorn/307/1972(H3N2)); remark: listed apart in the source
[7] = Binding affinity to Influenza virus A (A/Udorn/72 (H3N2)) M2 protein at pH 7.5 in presence of KCl by electrophysiology method; design: species or system Influenza A virus (A/udorn/1972(H3N2))

Compound | -TdeltaS [1] [kcal/mol] | IC50 [2] | CC50 (MDCK) [µM] | inhibition [3] [%] | inhibition [4] [%] | Activity [5] [degree] | Activity [6] [degree] | IC50 ([2]; Influenza A virus, MDCK, 48 h, read-out: IC50) [µM] | Kd [7] [µM]
C1CNC2(C1)C1CC3CC(C1)CC2C3 (stereo not drawn) | -3.97 | Not Active | > 100 | 5 | 4 | – | – | – | –
NC1(C23CC4CC(CC(C4)C2)C3)CCCCC1 | – | Not Active | > 100 | – | – | – | – | – | –
CC1(N)C2CC3CC(C2)CC1C3 (stereo not drawn) | -1.51 | Not Active | 25.6 | – | – | – | – | – | –
CCCC1(N)C2CC3CC(C2)CC1C3 (stereo not drawn) | -0.932 | Not Active | > 100 | – | – | 32 | 22 | – | –
CCOC(=O)C1=C[C@@H](OC(CC)CC)[C@H](NC(C)=O)[C@@H](N)C1 [OSELTAMIVIR] | – | – | – | – | – | – | – | 0.02 | –
NC12CC3CC(CC(C3)C1)C2 [AMANTADINE] | -1.11 | Not Active | > 100 | – | – | 32 | 22 | – | 9
CCC1(N)C2CC3CC(C2)CC1C3 (stereo not drawn) | -1.38 | Not Active | > 100 | – | – | – | – | – | –
NC1(C23CC4CC(CC(C4)C2)C3)CCCC1 | – | Not Active | > 100 | 4 | 4 | – | – | – | –
CN1CCCC12C1CC3CC(C1)CC2C3 (stereo not drawn) | -4.46 | Not Active | > 100 | – | – | – | – | – | –
NC1C2CC3CC(C2)CC1C3 (stereo not drawn) | -0.93 | Not Active | 70.5 | – | – | – | – | – | –
CC12CC3CC(CC(C3)C13CCCN3)C2 (stereo not drawn) | -3 | Not Active | > 100 | – | – | – | – | – | –
